The values that follow come from US20240140963A1, “FUSED TRICYCLIC CYCLIN-DEPENDENT KINASE INHIBITOR, AND PREPARATION METHOD THEREFOR AND PHARMACEUTICAL USE THEREOF” (Tuojie Biotech (Shanghai) Co., Ltd., priority 2021, published 2024).

The target in one data set is T1, CDK4/cyclin D1 (Homo sapiens, UniProt P11802).
T1 construct: purchased ProQinase 0142-0143-1
Kind of data set: CDK4/cyclin D1 kinase activity, mobility shift assay. It is filed as biochemical. As to the method:
(§1) In vitro CDK kinase activity was tested using a mobility shift assay.
(§2) The IC50 values of the compounds were obtained by fitting using XLFit excel add-in version 5.4.0.8. Fitting formula:
(§3) Y=Bottom+(Top−Bottom)/(1+10^((Log IC50−X)×Hill Slope)). • X: the log value of the compound concentration; Y: the percent inhibition of the compound.

A further data set concerns the target T2, CDK6/cyclin D3 (Homo sapiens, UniProt Q00534).
T2 construct: purchased Carna 04-107
Kind of data set: CDK6/cyclin D3 kinase activity, mobility shift assay. It is filed as biochemical. Here is the method: as §1, §2, §3

The next data set concerns the target T3, human PXR (Homo sapiens, UniProt O75469).
T3 construct: host or cells: DPX2 (HepG2)
T3 sequence (O75469 1-434): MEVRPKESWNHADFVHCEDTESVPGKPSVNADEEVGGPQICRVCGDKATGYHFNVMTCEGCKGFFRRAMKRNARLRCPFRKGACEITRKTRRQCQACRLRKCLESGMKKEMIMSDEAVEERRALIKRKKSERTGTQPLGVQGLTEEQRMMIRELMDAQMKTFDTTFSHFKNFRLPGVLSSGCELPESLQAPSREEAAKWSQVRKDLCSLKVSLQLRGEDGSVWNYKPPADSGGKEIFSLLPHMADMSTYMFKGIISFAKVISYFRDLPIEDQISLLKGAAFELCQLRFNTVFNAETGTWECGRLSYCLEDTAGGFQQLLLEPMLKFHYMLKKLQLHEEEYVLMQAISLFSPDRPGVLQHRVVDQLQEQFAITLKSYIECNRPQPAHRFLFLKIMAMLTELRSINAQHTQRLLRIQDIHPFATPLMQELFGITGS
Kind of data set: PXR induction assay in DPX2 cells (luciferase reporter). It is filed as cell-based. Here is the method:
1. The potential of the test compounds to induce the activity of drug metabolism enzymes by in vitro activating PXR was evaluated.
1) DPX2 (HepG2 cells were stably transfected with the human PXR gene and the fluorescent reporter gene) cells were purchased from Puracyp (Carlsbad, CA).
When covering 80-90% of the bottom of the culture flask, the cells were digested.
4) The cell suspension was transferred to a conical-bottomed centrifuge tube and centrifuged at 120 g for 10 min. The cells were suspended in the plating medium and adjusted to a concentration of 4×10^5 cells/mL. 100 μL of diluted cells were added to each well of a 96-well cell culture plate. The culture plate was placed in an incubator and incubated at 37° C. for 24 h before PXR activation assays.
The final concentration of DMSO was 0.1%. To 1 mL of pre-incubated medium, 1 μL of DMSO was added as a solvent control.
2) The cell culture plate was removed from the incubator, and the medium was discarded. 100 μL of each of the test compounds and positive compound was added to an appropriate well in duplicate, and the cell plate was placed in an incubator and incubated for 24 h.
1) After […] of drug treatment, quantification of PXR activation could be performed on the culture.
2) The CellTiter-Fluor™ cell viability assay kit and the One-Glo luciferase reagent were equilibrated to room temperature. The GF-AFC (10 μL) substrate was added to assay buffer (10 mL) to form 2× reagent, and the reagent was then diluted to 1× with 10 mL of PBS; the ONE-Glo substrate was added to the ONE-Glo luciferase assay buffer.
5) The ONE-Glo reagent was poured into a reagent reservoir, and then 50 μL was transferred to each well using a multi-channel pipette. The reagent was gently and well mixed, and the mixture was incubated and well mixed at room temperature for 5 min. After the incubation, the luminescence value of each well was read using a luminometer.
The luciferase activity was expressed in terms of […], where RLU is the mean luminescence intensity value of two replicates of each concentration of each compound, and RFU is the mean fluorescence intensity of two replicates of each concentration of each compound.
The calculation formula for induction fold: […]
For orientation: In a reporter assay the amount or activity of a reporter protein is the signal.

Setting [1] is: compound concentration 0.123 μM.

Where only a bound is given, the exact number is not on record here.

T1 sequence (P11802 whole entry): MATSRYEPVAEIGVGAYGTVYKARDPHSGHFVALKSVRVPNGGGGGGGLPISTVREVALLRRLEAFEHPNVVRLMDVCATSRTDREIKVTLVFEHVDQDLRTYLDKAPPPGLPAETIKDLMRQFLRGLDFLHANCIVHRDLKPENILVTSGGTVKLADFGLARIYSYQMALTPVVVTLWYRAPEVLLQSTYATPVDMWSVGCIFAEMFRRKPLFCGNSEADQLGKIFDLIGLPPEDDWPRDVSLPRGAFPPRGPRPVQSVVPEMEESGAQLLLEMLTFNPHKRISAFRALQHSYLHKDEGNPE
T1 sequence (P24385 whole entry partner): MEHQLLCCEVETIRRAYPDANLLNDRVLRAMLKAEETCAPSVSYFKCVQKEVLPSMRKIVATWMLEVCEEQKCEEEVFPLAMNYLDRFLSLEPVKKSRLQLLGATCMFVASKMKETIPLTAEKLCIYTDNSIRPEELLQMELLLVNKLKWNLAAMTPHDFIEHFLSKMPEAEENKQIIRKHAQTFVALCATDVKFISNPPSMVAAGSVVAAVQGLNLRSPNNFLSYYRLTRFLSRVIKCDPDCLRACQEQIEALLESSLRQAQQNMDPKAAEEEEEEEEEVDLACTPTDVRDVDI
T2 sequence (Q00534 whole entry): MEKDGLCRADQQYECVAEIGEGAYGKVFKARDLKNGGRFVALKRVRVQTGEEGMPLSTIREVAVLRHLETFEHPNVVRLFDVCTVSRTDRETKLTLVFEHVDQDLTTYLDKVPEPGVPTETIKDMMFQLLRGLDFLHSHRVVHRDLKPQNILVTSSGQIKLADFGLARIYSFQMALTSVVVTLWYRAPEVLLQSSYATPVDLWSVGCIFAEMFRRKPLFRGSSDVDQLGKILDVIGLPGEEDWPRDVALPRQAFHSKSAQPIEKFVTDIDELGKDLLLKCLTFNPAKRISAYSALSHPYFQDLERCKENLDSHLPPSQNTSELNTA
T2 sequence (P30281 whole entry partner): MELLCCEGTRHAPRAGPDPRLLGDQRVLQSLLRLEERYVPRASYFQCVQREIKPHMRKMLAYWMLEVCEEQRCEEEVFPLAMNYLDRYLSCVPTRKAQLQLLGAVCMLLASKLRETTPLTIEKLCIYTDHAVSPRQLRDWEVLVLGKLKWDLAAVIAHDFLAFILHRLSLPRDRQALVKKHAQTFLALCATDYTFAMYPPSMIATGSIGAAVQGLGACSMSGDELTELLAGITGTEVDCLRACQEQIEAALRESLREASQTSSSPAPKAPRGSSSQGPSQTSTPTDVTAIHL

Turning to `CC1COc2c(-c3nc(N[C@@H]4CCOC[C@H]4O)ncc3Cl)cc(F)c3nc(C(C)(C)O)n1c23` (mixture of isomers) [4f (racemate) in Example 4], the concentration for half-maximal inhibition (IC50) on CDK4/cyclin D1 amounted to 15 nM; at CDK6/cyclin D3 it was 171 nM.
For `C[C@H]1COc2c(-c3nc(N[C@@H]4CCOC[C@H]4O)ncc3Cl)cc(F)c3nc(C(C)(C)O)n1c23` (single isomer, unassigned) [Isomer 1 with a retention time of 2.078 min in Example 4], the Induction fold on human PXR (setting [1]) stood at 0.87; on human PXR (compound concentration 10.0 μM), 1.43.
`Cc1nc2c(F)cc(-c3nc(N[C@@H]4CCN(S(C)(=O)=O)C[C@H]4O)ncc3Cl)c3c2n1[C@@H](C)CO3` (single isomer, unassigned) [Isomer 1 with a retention time of 2.094 min in Example 2]: the IC50 at CDK4/cyclin D1 was determined as 2.5 nM; at CDK6/cyclin D3, 39 nM.
On the same counts, the results for `Cc1nc2c(F)cc(-c3nc(N[C@@H]4CCOC[C@H]4O)ncc3F)c3c2n1[C@@H](C)CO3` (single isomer, unassigned) [Isomer 1 with a retention time of 2.903 min in Example 1] are 26 nM and greater than 1000 nM.
On the same counts, the results for `Cc1nc2c(F)cc(-c3nc(N[C@@H]4CCOC[C@H]4O)ncc3Cl)c3c2n1[C@@H](C)CO3` (single isomer, unassigned) [Isomer 1 with a retention time of 3.518 min in Example 3] are 15 nM and 64 nM.
In the case of `C[C@@H]1COc2c(-c3nc(N[C@@H]4CCOC[C@H]4O)ncc3Cl)cc(F)c3nc(C(C)(C)O)n1c23` (single isomer, unassigned) [Isomer 2 with a retention time of 1.887 min in Example 4], the Induction fold at human PXR (setting [1]) was determined as 0.99; on human PXR (compound concentration 10.0 μM), 1.48.
As to `Cc1nc2c(F)cc(-c3nc(N[C@@H]4CCN(S(C)(=O)=O)C[C@H]4O)ncc3Cl)c3c2n1[C@@H](C)CO3` (single isomer, unassigned) [Isomer 2 with a retention time of 2.499 min in Example 2], the results for the IC50 at CDK4/cyclin D1 and at CDK6/cyclin D3 were 1.5 nM and 9.1 nM, respectively.
As to `Cc1nc2c(F)cc(-c3nc(N[C@@H]4CCOC[C@H]4O)ncc3F)c3c2n1[C@@H](C)CO3` (single isomer, unassigned) [Isomer 2 with a retention time of 3.997 min in Example 1], the IC50 was determined as 11 nM at CDK4/cyclin D1 and 301 nM on CDK6/cyclin D3.

The IC50 is the midpoint of a concentration-inhibition curve.
